Experimental data taken from patent publication US20130330396A1, “METHODS FOR THE TREATMENT OF THROAT DISCOMFORT” (INTERCONTINENTAL GREAT BRANDS LLC, priority 2009, published 2013).

Tests used:
[1] = Sensory evaluation of cooling agent-containing fondants (location, intensity, onset speed of cooling sensation); assay type: in vivo; conditions: for Long-lasting mouth cooling / Long-lasting throat cooling / Predominant mouth cooling / Predominant throat cooling: in fondant at 0.03, 0.06 and 0.09 weight percent, approx. 0.5 gram dissolved in the mouth, six evaluators
Method: The cooling agents N-ethyl-2,2-diisopropylbutanamide and N,2,3-trimethyl-2-isopropylbutanamide were evaluated in fondant at concentrations of 0.03, 0.06, and 0.09 weight percent. The fondant base consisted of 85 weight percent 6X fondant sugar and 15 weight percent deionized water.
Sensory evaluations of the cooling agent-containing fondants were conducted by six evaluators, who observed the location, intensity, and onset speed of cooling sensation as they tasted approximately 0.5 gram of fondant by allowing it to dissolve in the mouth.

[2] = Inventors' observations on bitterness and throat versus mouth cooling; conditions: in vivo
From the text: The present inventors have observed that N-ethyl-2,2-diisopropylbutanamide is a particularly effective for throat soothing. […] The structures of N-ethyl-2,2-diisopropylbutanamide and N,2,3-trimethyl-2-isopropylbutanamide, which differ only by two methylene (—CH2—) groups, are shown below.

[3] = menthol-containing lozenge; cited from earlier work

| Structure (SMILES) | Long-lasting mouth cooling [1] | Long-lasting throat cooling [1] | Predominant mouth cooling [1] | Predominant throat cooling [1] | Location of cooling effect (throat versus mouth) [2] | Throat cooling relative to N,2,3-trimethyl-2-isopropylbutanamide ([1]; when used in a candy system) | Location of physiological cooling effect (throat versus mouth) [3] |
| --- | --- | --- | --- | --- | --- | --- | --- |
| CNC(=O)C(C)(C(C)C)C(C)C [Example 2, N,2,3-trimethyl-2-isopropylbutanamide] | No | No | Yes | No | primarily in the mouth rather than the throat | – | – |
| CCNC(=O)C(CC)(C(C)C)C(C)C [Example 1, N-ethyl-2,2-diisopropylbutanamide] | No | Yes | No | Yes | selectivity for throat cooling over mouth cooling | superior and unexpected throat cooling | – |
| CC1CCC(C(C)C)C(O)C1 (stereo not drawn) [menthol] | – | – | – | – | – | – | felt primarily in the mouth rather than the throat |
